Measurements published in patent US20230399622A1, “THERAPY FOR DEGENERATIVE DISEASE AND TISSUE DAMAGE” (FUNDACIÓ CENTRE DE REGULACIÓ GENÒMICA, priority 2020, published 2023).

Experiments:
MSCs [1] = assay: Transwell chemotactic assay of MSCs with chemokine receptor antagonists, media conditioned by rd10 retina; assay type: cell-based, mouse; details: towards media conditioned by rd10 (P18) retina; vs vehicle DMSO; working concentrations of Table 2
Experimental: (§1) Chemotactic assays were performed using transwell inserts (pore size, 8 μm, BD Biosciences—353182) and 12-well culture plates. To test migration towards defined chemokine gradients, lower chambers were loaded with 1.2 ml of SF DMEM/F-12-GlutaMAX medium with either mCcl5, mCxcl1, mCxcl10, mCxcl16 or a combination of Ccl5 and mCxcl16 (all 50 ng/ml, Peprotech). For tests of NMDA-damage, mice were sacrificed 24 hpi; rd10 mice were sacrificed at P18. Human retina were dissected and cultured for an initial 12 hours in Neurobasal A medium, as previously described. Afterwards, both mouse and human retina were cultured for 24 hours in SF DMEM/F-12-GlutaMAX and SF Neurobasal A (with or without 1 mM NMDA) respectively. 1.2 ml of the resulting conditioned medium were loaded in the lower chambers of the transwell. The upper chamber was loaded with 2×10^5 MSCs in SF medium. The medium used to resuspend MSCs was matched to the medium in the bottom chamber: either DMEM/F-12-GlutaMAX (to test migration towards medium conditioned by mouse retina) or Neurobasal A (to test migration towards medium conditioned by human retina). […]
(§2) Transwell plates were incubated for 1.5 hours at 37° C. […] For each insert, seven fields were imaged and analysed. Cells were automatically counted using a custom-made macro for the ImageJ software (US National Institutes of Health, Bethesda, Md., USA; http://rsb.info.nih.gov/ij/).

MSCs [2] = assay: Transwell chemotactic assay of MSCs with chemokine receptor antagonists, media conditioned by NMDA-damaged retina; assay type: cell-based, mouse; details: towards media conditioned by NMDA-damaged (24 hpi) retina; vs vehicle DMSO; working concentrations of Table 2
Experimental: as §1, §2

migration of MSCs in the presence of receptor inhibitors (MSCs [1]) | Structure (SMILES) | migration of MSCs in the presence of receptor inhibitors (MSCs [2])
not affected | NS(=O)(=O)c1c(Cl)ccc(NC(=O)Nc2cccc(Cl)c2Cl)c1O [Cxcr2 inhibitor, SB 332235] | not affected
significantly reduced | COc1cc(C(=O)NC2C[C@H]3CCC[C@@H](C2)N3CC(=O)Nc2ccccc2Cl)cc(OC)c1OC (stereo partly shown) [Cxcr6 inhibitor, ML 339] | significantly reduced
